US9809623B2, “α4β7 peptide monomer and dimer antagonists” (Protagonist Therapeutics, Inc., priority 2014, dated 2017)
Numbered stars: 1 amine (or outer) side, 2 acyl side, 3 side chain; on linkers, the order of the positions; unused ones are H or OH. Bridge positions count the residues as written; N and C are the ends. Square brackets hold non-standard residues; d marks the D form. Peptide text beside a SMILES is read from it. I, II: the chains in the order shown. X1 = O=C(CCOCCOCCOCCOCCOCCOCCOCCOCCOCCOCCOCCOCCOCCOCCOCCOCCOCCOCCOCCOCCOCCOCCOCCOCCOCCOCCC(=O)[*:2])[*:1]; NMeR = CN[C@@H](CCCNC(=N)N)C(=O)O

Assays:
[1] = Simulated Gastric Fluid (SGF) Assay; format: in vitro ADME; settings: pig, simulated gastric fluid (SGF) with porcine pepsin, pH 2; Table 4-C, t1/2
Description: SGF was prepared by adding 20 mg NaCl, 32 mg porcine pepsin (MP Biochemicals, catalog 02102599), and 70 μl HCl to 10 ml water (final pH=2). Aliquots of SGF (0.5 ml each) were pre-warmed at 37° C. For each peptide tested, to start the reaction, 1 μl of peptide stock solution (10 mM in DMSO) was added to 0.5 ml SGF and thoroughly mixed such that the final peptide concentration was 20 μM. The reactions were incubated at 37° C. with gentle shaking. At each time point (0, 15, 30, 60 min), 50 μl aliquots were removed and added to 200 ul acetonitrile containing 0.1% formic acid to quench the reaction. Samples were stored at 4° C. until the end of the experiment and centrifuged at 10,000 rpm for 5 minutes. Aliquots of the supernatant were removed, diluted 1:1 into distilled water containing internal standard, and analyzed by LCMS/MS. Percent remaining at each timepoint was calculated based on the peak area response ratio of test compound to internal standard. Time 0 was set to 100%, and all later timepoints were calculated relative to time 0. Half-lives were calculated by fitting to a first-order exponential decay equation using GraphPad.

[2] = Simulated Intestinal Fluid (SIF) Stability Assay; format: in vitro ADME, porcine; settings: pig, simulated intestinal fluid (SIF) with 1% porcine pancreatin, pH 6.5, Table 4-C, t1/2; > means assay stopped at that time; read-out: SIF (porcine) Min
Summary of the method: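 Peptides (22 μM final) incubated at 37 °C in FASSIF (pH 6.5) with 1% porcine pancreatin; aliquots quenched at various times and analyzed by LC-MS/MS against internal standard. Half-life from first-order exponential decay fit of percent remaining.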

Plasma Stability Assay = format: in vitro ADME; settings: rat, Table 4-C, t1/2
Description: 0.5 mL of rat plasma (one tube per peptide, volume depends on how many time points are to be collected, 50 μL per time point) was added to each well of a 96-well polypropylene plate, and the tubes were incubated in a heated water bath, preset to 37° C. with gentle shaking. 1 μL of 10 mM peptide stock solution was added to each tub, and then 200 μL of Acetonitrile w/0.1% Formic Acid was added to each tube (1:4). Samples were collected at the following time points: 0, 10, 30, 45, 60, 120, 180 mins. When all time points were collected, the plate was centrifuged at 5000 rpm for 5 mins. LCM analysis was performed by pipetting 100 μL of each sample to appropriate well of a 96-well deep plate. 100 μL of an internal standard peptide (1 ug/mL) was added in Mobile Phase A to each well. The plate was vortexed and injected

α4β7 integrin = α4β7 integrin (Homo sapiens, UniProt P13612+P26010, DEL724-798); assay: Surface plasmon resonance (SPR), binding of soluble α4β7 integrin to immobilized biotin-labeled ligand
α4β7 integrin, sequence (P13612 34-977 limits assumed, stated change not applied): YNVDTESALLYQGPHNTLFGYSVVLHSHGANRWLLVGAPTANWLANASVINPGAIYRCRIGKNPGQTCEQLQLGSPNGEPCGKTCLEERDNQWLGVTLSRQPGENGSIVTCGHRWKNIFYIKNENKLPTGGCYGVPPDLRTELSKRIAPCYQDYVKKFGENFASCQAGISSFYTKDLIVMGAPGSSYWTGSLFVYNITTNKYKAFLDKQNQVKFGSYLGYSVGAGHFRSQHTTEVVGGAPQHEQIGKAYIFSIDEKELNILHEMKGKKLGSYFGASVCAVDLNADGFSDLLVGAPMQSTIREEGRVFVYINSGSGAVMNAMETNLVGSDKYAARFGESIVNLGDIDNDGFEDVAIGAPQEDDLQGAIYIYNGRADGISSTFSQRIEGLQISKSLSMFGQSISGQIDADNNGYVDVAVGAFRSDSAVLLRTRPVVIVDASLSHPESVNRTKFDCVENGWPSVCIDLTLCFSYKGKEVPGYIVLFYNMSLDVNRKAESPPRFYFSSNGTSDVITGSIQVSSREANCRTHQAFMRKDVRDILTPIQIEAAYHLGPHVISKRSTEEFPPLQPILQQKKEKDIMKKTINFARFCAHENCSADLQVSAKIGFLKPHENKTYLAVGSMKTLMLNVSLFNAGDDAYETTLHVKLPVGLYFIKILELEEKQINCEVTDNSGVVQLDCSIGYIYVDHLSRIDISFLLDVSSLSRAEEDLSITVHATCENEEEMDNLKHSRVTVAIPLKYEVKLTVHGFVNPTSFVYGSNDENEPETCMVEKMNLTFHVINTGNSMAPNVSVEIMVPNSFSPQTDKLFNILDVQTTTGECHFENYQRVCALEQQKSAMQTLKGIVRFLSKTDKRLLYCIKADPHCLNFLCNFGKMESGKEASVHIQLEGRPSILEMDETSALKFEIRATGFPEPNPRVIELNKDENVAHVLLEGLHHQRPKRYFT
α4β7 integrin, sequence (P26010 20-723 limits assumed, stated change not applied): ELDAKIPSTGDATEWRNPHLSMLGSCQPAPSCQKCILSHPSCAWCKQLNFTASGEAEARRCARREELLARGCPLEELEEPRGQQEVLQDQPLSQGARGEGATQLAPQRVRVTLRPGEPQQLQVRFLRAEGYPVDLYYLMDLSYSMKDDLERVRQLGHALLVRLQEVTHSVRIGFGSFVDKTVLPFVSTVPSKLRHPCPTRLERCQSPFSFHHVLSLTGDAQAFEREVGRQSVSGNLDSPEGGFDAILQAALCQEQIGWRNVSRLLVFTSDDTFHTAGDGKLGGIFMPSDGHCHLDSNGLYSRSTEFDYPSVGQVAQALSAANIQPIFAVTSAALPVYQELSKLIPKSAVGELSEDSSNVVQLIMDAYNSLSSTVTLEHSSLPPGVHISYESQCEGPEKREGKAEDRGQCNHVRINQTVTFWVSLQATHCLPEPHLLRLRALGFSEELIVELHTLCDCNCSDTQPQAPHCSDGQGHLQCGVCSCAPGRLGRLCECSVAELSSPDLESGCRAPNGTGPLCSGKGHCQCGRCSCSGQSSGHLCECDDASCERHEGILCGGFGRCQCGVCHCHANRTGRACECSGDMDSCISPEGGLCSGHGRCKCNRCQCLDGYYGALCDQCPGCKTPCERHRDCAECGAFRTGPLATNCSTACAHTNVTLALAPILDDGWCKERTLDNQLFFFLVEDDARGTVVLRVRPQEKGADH
From the text: Surface plasmon resonance (SPR) was used to further evaluate the binding properties of Peptide X. An analog of Peptide X (Peptide X-biotin), which contains a biotin group attached to Peptide X via a PEG linker, was synthesized. Another peptide dimer having the following structure, which is closely related to Peptide X, was also synthesized and biotin-labeled:
• (Peptide Z). Vedolizumab was also chemically biotinylated. Peptide X-biotin, Peptide Z-biotin, or biotin-labeled vedolizumab antibody was immobilized to a streptavidin coated SPR chip, and the binding of soluble α4β7 integrin was measured. […] This half-life is quite long, and may be caused by a tight association between the peptide and the bound Mn^2+ metal ion on the integrin. […] In addition, the KD for Peptide X-biotin was substantially lower than that for Peptide Z-biotin.

αEβ7 integrin = assay: FACS binding in cynomolgus monkey blood (α4β7 / αEβ7 expressing cells); format: cell-based; settings: cyno blood, 1 nM
Description: Blood from cynomolgus monkeys was also analyzed by FACS.
Binding to αEβ7 integrin in cyno blood was also tested. Cyno blood was incubated with 1 nM Peptide X-Alexa 647, and cells expressing α4β7 or αEβ7 were analyzed by FACS. […] Binding to α4β7 was specific, because it could be blocked in the presence of a large excess (1 uM) of unlabeled Peptide X. Therefore under these conditions, it was concluded that Peptide X binds α4β7, not αEβ7.

[3] = system: cell types in human whole blood; assay: FACS binding specificity in human whole blood; format: cell-based; settings: 1 nM, 1 mM MnCl2
Description: To further evaluate the selectivity of Peptide X in human blood, the fluorescent dye Alexa 647 was conjugated to Peptide X at the same position used for attaching biotin. […] Heparinized human whole blood was supplemented with 1 mM MnCl2, and stained with the Peptide X-Alexa 647 conjugate or biotinylated vedolizumab for 1 hour at room temperature. The samples were fixed (red blood cells lysed) and washed. The vedolizumab samples were stained separately with streptavidin Alexa 647 for stain for 30 minutes at room temperature. FACS analysis was used to assess binding of the peptide or vedolizumab to a broad panel of cell types including NK cells, basophils, monocytes, eosinophils, neutrophils, CD4 naïve T cells, CD4 memory T cells, CD8 naïve T cells, CD8 memory T cells, and B cells. […] The binding specificity for vedolizmab shown in Table 7 is also very similar to that reported in the literature (Soler et al, JPET 330:864-875, 2009).

## CC(=O)N[C@H]1CSSC(C)(C)[C@@H](C(=O)N[C@H](CCCCNC(=O)CN(CC(=O)NCCCC[C@@H](NC(=O)[C@H]2NC(=O)[C@H](CC(C)C)NC(=O)[C@H]([C@@H](C)O)NC(=O)[C@H](CC(=O)O)NC(=O)[C@H](CO)NC(=O)[C@H](CCCNC(=N)N)N(C)C(=O)[C@@H](NC(C)=O)CSSC2(C)C)C(N)=O)C(=O)CCN)C(N)=O)NC(=O)[C@H](CC(C)C)NC(=O)[C@H]([C@@H](C)O)NC(=O)[C@H](CC(=O)O)NC(=O)[C@H](CO)NC(=O)[C@H](CCCNC(=N)N)N(C)C1=O [compound 203, (Ac-C-N-Me-R-S-D-T-L-Pen-k-NH2)2-IDA]
[1]
  half-life at 20 μM: > 6 h
[2]
  half-life at 22 μM: > 4.88 h
Plasma Stability Assay
  half-life at 20 μM: > 6 h

## CC(=O)N[C@H]1CSSC[C@@H](C(=O)N[C@@H](CCCCNC(=O)CCOCCOCCOCCOCCOCCOCCOCCOCCOCCOCCOCCOCCOCCOCCOCCOCCOCCOCCOCCOCCOCCOCCOCCOCCOCCOCCC(=O)NCCCC[C@H](NC(=O)[C@@H]2CSSC[C@H](NC(C)=O)C(=O)N(C)[C@@H](CCCNC(=N)N)C(=O)N[C@@H](CO)C(=O)N[C@@H](CC(=O)O)C(=O)N[C@@H]([C@@H](C)O)C(=O)N[C@@H](CC(C)C)C(=O)N2)C(=O)O)C(=O)O)NC(=O)[C@H](CC(C)C)NC(=O)[C@H]([C@@H](C)O)NC(=O)[C@H](CC(=O)O)NC(=O)[C@H](CO)NC(=O)[C@H](CCCNC(=N)N)N(C)C1=O [compound 200, (Ac-C-N-Me-R-S-D-T-L-C-K-OH)2-PEG25] (I: Ac-C[NMeR]SDTLCK-OH / II: Ac-C[NMeR]SDTLCK-OH; disulfide I:1-I:7, II:1-II:7 (inferred); linker I:8-II:8 via X1 (inferred))
[1]
  half-life at 20 μM: > 6 h
[2]
  half-life at 22 μM: 0.133 h
Plasma Stability Assay
  half-life at 20 μM: 1.47 h

## CC(=O)N[C@@H]1C(=O)N(C)[C@@H](CCCNC(=N)N)C(=O)N[C@@H](CO)C(=O)N[C@@H](CC(=O)O)C(=O)N[C@@H]([C@@H](C)O)C(=O)N[C@@H](CC(C)C)C(=O)N[C@H](C(=O)N[C@@H](Cc2ccc(C(C)(C)C)cc2)C(=O)N[C@@H](CCC(=O)O)CC(=O)N[C@H](CCCCNC(=O)CN(CC(=O)NCCCC[C@@H](NC(=O)C[C@H](CCC(=O)O)NC(=O)[C@H](Cc2ccc(C(C)(C)C)cc2)NC(=O)[C@H]2NC(=O)[C@H](CC(C)C)NC(=O)[C@H]([C@@H](C)O)NC(=O)[C@H](CC(=O)O)NC(=O)[C@H](CO)NC(=O)[C@H](CCCNC(=N)N)N(C)C(=O)[C@@H](NC(C)=O)C(C)(C)SSC2(C)C)C(N)=O)C(=O)CCNC(=O)CCOCCOCCOCCOCCNC(=O)CCCC[C@@H]2SC[C@@H]3NC(=O)N[C@@H]32)C(N)=O)C(C)(C)SSC1(C)C [Peptide X-biotin]
α4β7 integrin
  KD lower than that for biotin-labeled vedolizumab: 3.8 fold
  kd: 0.0000173 s⁻¹
α4β7 integrin; read-out: ka
  kon: 1120 M⁻¹ s⁻¹

## CC(=O)N[C@@H]1C(=O)N(C)[C@@H](CCCNC(=N)N)C(=O)N[C@@H](CO)C(=O)N[C@@H](CC(=O)O)C(=O)N[C@@H]([C@@H](C)O)C(=O)N[C@@H](CC(C)C)C(=O)N[C@H](C(=O)N[C@@H](Cc2ccc(C(C)(C)C)cc2)C(=O)N[C@@H](CCC(=O)O)CC(=O)N[C@H](CCCCNC(=O)CN(CC(=O)NCCCC[C@@H](NC(=O)C[C@H](CCC(=O)O)NC(=O)[C@H](Cc2ccc(C(C)(C)C)cc2)NC(=O)[C@H]2NC(=O)[C@H](CC(C)C)NC(=O)[C@H]([C@@H](C)O)NC(=O)[C@H](CC(=O)O)NC(=O)[C@H](CO)NC(=O)[C@H](CCCNC(=N)N)N(C)C(=O)[C@@H](NC(C)=O)C(C)(C)SSC2(C)C)C(N)=O)C(=O)CCNC(=O)CCCCCC2(C)C(=CC=CC=CC3=[N+](CCCS(=O)(=O)[O-])c4ccc(S(=O)(=O)O)cc4C3(C)C)N(CCCS(=O)(=O)O)c3ccc(S(=O)(=O)O)cc32)C(N)=O)C(C)(C)SSC1(C)C (single isomer, unassigned) [Peptide X-Alexa 647]
αEβ7 integrin
  Binding to α4β7+ and αEβ7+ CD4 memory T cells: bound to α4β7^+, but not αEβ7^+ cells
[3]
  Percent positive staining, Basophils: 87%
  Percent positive staining, CD4 memory T cells: 20%
  Percent positive staining, CD4 naïve T cells: 51%
  Percent positive staining, CD8 memory T cells: 36%
  Percent positive staining, CD8 naïve T cells: 52%
  Percent positive staining, CD19+ B cells: 78%
  Percent positive staining, Eosinophils: 92%
  Percent positive staining, Monocytes: 7%
  Percent positive staining, NK cells CD16+ 56+: 45%
  Percent positive staining, Neutrophils: 0.35%
